Assay results as given in patent publication US20220275391A1, “METHODS OF USING ALS INHIBITOR HERBICIDES FOR CONTROL OF UNWANTED VEGETATION IN ALS INHIBITOR HERBICIDE TOLERANT BETA VULGARIS PLANTS” (priority 2010, published 2022).

Experiments:
[1] = system: KLARINA; experiment: Field trial, phytotoxicity scoring on ALS inhibitor sensitive reference variety KLARINA; conditions: BBCH 14
Description: The water quantity applied in the various applications equaled 200 l/ha. At 8, 14, 16, 17, 28, and 31 days (as indicated in the various Tables) after application (DAA) of the respective ALS inhibitor herbicide(s), the damages (phytotoxicity/phyto) on the different sugar beet plants were scored according to the scale from 0% to 100%.
In this context, “0%” means “no phytotoxicity/phyto” and “100%” means plants were completely killed.

[2] = system: wild type plants; experiment: Greenhouse herbicide treatment of plants regenerated from wild type cell cultures; conditions: lowest doses tested (range 7-70 g a.i./ha foramsulfuron, 1-10 g a.i./ha iodosulfuron-methyl-sodium, mixtures 7:1)
Protocol: (§1) During the first 10-15 days after transfer into soil containing substrate the plants were kept in an environment with high air humidity. During and after they were weaned to normal greenhouse air humidity regimes the plants were kept in the greenhouse under artificial light (12 h) at 20+−3° C./15+−2° C. day/night temperatures.
(§2) The herbicide doses tested were equivalent to 7-70 g a.i./ha for foramsulfuron and 1-10 g a.i./ha for iodosulfuron-methyl-sodium.

[3] = system: regenerated plants from foramsulfuron tolerant cell culture (SB574TL); experiment: Greenhouse herbicide treatment of plants regenerated from the foramsulfuron tolerant cell culture; conditions: in vivo
Protocol: From this clone (SB574TL), shoots were regenerated in presence of the ALS inhibitor herbicide and then the shoots were transferred to MS medium containing 0.05 mg/l Naphthalene acetic acid (NAA).
as §1, §2

[4] = system: sugar beet cell cultures (genotype 7T9044); experiment: Selection of sugar beet cell colonies on foramsulfuron medium; assay type: cell-based, Beta vulgaris; conditions: 3×10^−6 M of foramsulfuron in medium
Description: Sugar beet cell cultures were initiated from seedlings of a diploid sugar beet genotype 7T9044 (as, for example, described by Alexander Dovzhenko, PhD Thesis, Title: “Towards plastid transformation in rapeseed (Brassica napus L.) and sugarbeet (Beta vulgaris L.)”, Ludwig-Maximilians-Universität München, Germany, 2001). Callus obtained therefrom was exposed to 10^−7 M foramsulfuron. Surviving and growing cell colonies were numbered and transferred after 4-6 weeks onto fresh medium containing 3×10^−7 M of the inhibitor. One of these cell colonies was able to grow not only at this concentration of the inhibitor but even in presence of 3×10^−6 M of foramsulfuron [CAS RN 173159-57-4].

COc1cc(OC)nc(NC(=O)NS(=O)(=O)c2cc(NC=O)ccc2C(=O)N(C)C)n1 [Foramsulfuron (A1-13), foramsulfuron]
% phyto ([1]; 25 g/ha, 8 days): 85% | % phyto ([1]; 25 g/ha, 14 days): 83% | % phyto ([1]; 25 g/ha, 28 days): 86% | % phyto ([1]; 50 g/ha, 8 days): 90% | % phyto ([1]; 50 g/ha, 14 days): 92% | % phyto ([1]; 50 g/ha, 28 days): 94% | effect of herbicide treatment on wild type plants [2]: killed | tolerance of regenerated plants to herbicide treatment [3]: tolerated even the highest herbicide doses | growth of selected cell colony (clone SB574TL) in presence of the inhibitor [4]: able to grow
